Read-outs that look alike come from different tables or passages of the source.
How the values were obtained:
THP1 cells = test: Combination drug screening, Cell Titer Glo, 10 × 10 matrix, THP1 cells; type: cell-based
MOLM14(D835Y) cells = type: cell-based; conditions: for Excess HSA Score: 10 × 10
FLT3 D835Y = biological target: T1, FLT3 D835Y (Homo sapiens, UniProt P36888, D835Y); test: DiscoverX KINOMEscan competition binding, FLT3 D835Y
T1 construct: purchased DiscoverX (KINOMEscan)
T1 sequence (P36888 27-993 D835Y): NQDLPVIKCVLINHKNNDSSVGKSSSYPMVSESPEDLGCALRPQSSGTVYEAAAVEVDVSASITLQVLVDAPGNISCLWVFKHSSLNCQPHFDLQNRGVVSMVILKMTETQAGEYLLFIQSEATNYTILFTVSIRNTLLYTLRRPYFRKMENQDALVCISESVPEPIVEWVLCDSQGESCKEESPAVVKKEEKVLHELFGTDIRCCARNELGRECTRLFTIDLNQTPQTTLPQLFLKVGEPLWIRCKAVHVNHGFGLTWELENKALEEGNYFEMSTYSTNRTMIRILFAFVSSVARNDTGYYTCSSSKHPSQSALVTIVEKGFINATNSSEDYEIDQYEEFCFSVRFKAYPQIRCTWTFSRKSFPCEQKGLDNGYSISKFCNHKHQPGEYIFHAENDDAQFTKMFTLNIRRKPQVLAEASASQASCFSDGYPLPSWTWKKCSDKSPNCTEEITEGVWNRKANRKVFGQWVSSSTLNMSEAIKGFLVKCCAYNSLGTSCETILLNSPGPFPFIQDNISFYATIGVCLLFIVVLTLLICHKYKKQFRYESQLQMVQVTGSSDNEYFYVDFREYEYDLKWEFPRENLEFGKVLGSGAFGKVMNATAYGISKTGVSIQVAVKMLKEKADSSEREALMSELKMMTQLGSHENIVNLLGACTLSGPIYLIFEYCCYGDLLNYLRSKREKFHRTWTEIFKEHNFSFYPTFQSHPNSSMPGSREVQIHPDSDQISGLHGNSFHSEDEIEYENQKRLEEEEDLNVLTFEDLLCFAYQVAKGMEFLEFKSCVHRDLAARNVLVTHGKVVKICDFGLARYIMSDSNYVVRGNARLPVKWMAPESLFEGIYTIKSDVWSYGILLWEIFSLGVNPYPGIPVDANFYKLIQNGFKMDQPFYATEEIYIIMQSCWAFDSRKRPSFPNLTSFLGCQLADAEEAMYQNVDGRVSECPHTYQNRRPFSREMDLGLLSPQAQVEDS

[1] = starting conc. 200 nM, with (+)-BAY-1251152 starting conc. 1000 nM
[2] = starting conc. 200 nM, with Azacitidine (5-Azacytidine) starting conc. 20000 nM
[3] = starting conc. 200 nM, with Palbociclib starting conc. 10000 nM
[4] = starting conc. 200 nM, with Prednisolone starting conc. 10000 nM
[5] = starting conc. 200 nM, with TNO-155 starting conc. 10000 nM
[6] = starting conc. 200 nM, with Venetoclax (ABT-199) starting conc. 2000 nM
[7] = starting conc. 200 nM, with Venetoclax (ABT-199) starting conc. 20000 nM
[8] = starting conc. 20000 nM, with (+)-BAY-1251152 starting conc. 1000 nM
[9] = starting conc. 20000 nM, with Azacitidine (5-Azacytidine) starting conc. 20000 nM
[10] = starting conc. 20000 nM, with Palbociclib starting conc. 10000 nM
[11] = starting conc. 20000 nM, with Prednisolone starting conc. 10000 nM
[12] = starting conc. 20000 nM, with TNO-155 starting conc. 10000 nM
[13] = starting conc. 20000 nM, with Venetoclax (ABT-199) starting conc. 2000 nM
[14] = starting conc. 20000 nM, with Venetoclax (ABT-199) starting conc. 20000 nM
[15] = MOLM14(D835Y) cells, combination with Eprenetapopt/APR-246
[16] = MOLM14(D835Y) cells, combination with Venetoclax (ABT-199)

## COc1cc2ncc(-c3cncc(N[C@H]4CNCC[C@@H]4F)n3)n2nc1C1CC1 [Compound 24, 6-(6-cyclopropyl-7-methoxyimidazo[1,2-b]pyridazin-3-yl)-N-((3S,4S)-4-fluoropiperidin-3-yl)pyrazin-2-amine]
THP1 cells; THP1 cells, 10 × 10, combination with (+)-BAY-1251152
  Excess HSA Score: −308.4
THP1 cells; THP1 cells, 10 × 10, combination with AMG-232
  Excess HSA Score: 144.3
THP1 cells; THP1 cells, 10 × 10, combination with AZD-5363
  Excess HSA Score: −379.5012
THP1 cells; THP1 cells, 10 × 10, combination with Eprenetapopt/APR-246
  Excess HSA Score: −87.03
THP1 cells; THP1 cells, 10 × 10, combination with Ivosidenib
  Excess HSA Score: 107
THP1 cells; THP1 cells, 10 × 10, combination with Lenalidomide
  Excess HSA Score: −94.52
THP1 cells; THP1 cells, 10 × 10, combination with Palbociclib
  Excess HSA Score: −359.2
THP1 cells; THP1 cells, 10 × 10, combination with Prednisolone
  Excess HSA Score: 35
THP1 cells; THP1 cells, 10 × 10, combination with SNDX-5613
  Excess HSA Score: 504
THP1 cells; THP1 cells, 10 × 10, combination with TNO-155
  Excess HSA Score: −66.32
THP1 cells; THP1 cells, 10 × 10, combination with Trametinib
  Excess HSA Score: −416.7
THP1 cells; THP1 cells, 10 × 10, combination with Ulixertinib
  Excess HSA Score: −298.8
THP1 cells; THP1 cells, 10 × 10, combination with Venetoclax (ABT-199)
  Excess HSA Score: −2203
THP1 cells; THP1 cells, combination with Prednisolone
  Comments: Antagonistic
THP1 cells; THP1 cells, combination with Venetoclax (ABT-199)
  Comments: Synergistic
THP1 cells; [1]
  Comments: Synergistic at both
  Excess HSA Score: −571
THP1 cells; [2]
  Comments: Synergism is more
  Excess HSA Score: −34.1
THP1 cells; [3]
  Comments: Synergistic at both
  Excess HSA Score: −217.9
THP1 cells; [4]
  Comments: Antagonistic at both
  Excess HSA Score: 212.2
THP1 cells; [5]
  Comments: Synergistic
  Excess HSA Score: −37.04
THP1 cells; [6]
  Comments: Synergistic; Optimal
  Excess HSA Score: −888.9
THP1 cells; [7]
  Comments: Synergistic; Optimal
  Excess HSA Score: −1905
THP1 cells; [8]
  Comments: Synergistic at both
  Excess HSA Score: −641.3
THP1 cells; [9]
  Comments: Synergism is more
  Excess HSA Score: −703.5
THP1 cells; [10]
  Comments: Synergistic at both
  Excess HSA Score: −318.6
THP1 cells; [11]
  Comments: Antagonistic at both
  Excess HSA Score: 291
THP1 cells; [12]
  Comments: Antagonistic over
  Excess HSA Score: 308.6
THP1 cells; [13]
  Comments: Synergistic; Optimal
  Excess HSA Score: −108.3
THP1 cells; [14]
  Comments: Synergistic; Optimal
  Excess HSA Score: −1677
MOLM14(D835Y) cells; MOLM14(D835Y) cells, combination with (+)-BAY-1251152
  Excess HSA Score: −245.2
MOLM14(D835Y) cells; MOLM14(D835Y) cells, combination with AMG-232
  Excess HSA Score: 468.3
MOLM14(D835Y) cells; MOLM14(D835Y) cells, combination with AZD-5363
  Excess HSA Score: −1011
MOLM14(D835Y) cells; [15]
  Excess HSA Score: 143
  Comments: Antagonistic
MOLM14(D835Y) cells; MOLM14(D835Y) cells, combination with Ivosidenib
  Excess HSA Score: 282.2936
MOLM14(D835Y) cells; MOLM14(D835Y) cells, combination with Lenalidomide
  Excess HSA Score: 491.2
MOLM14(D835Y) cells; MOLM14(D835Y) cells, combination with Palbociclib
  Excess HSA Score: −732.6
MOLM14(D835Y) cells; MOLM14(D835Y) cells, combination with Prednisolone
  Excess HSA Score: 169.8
MOLM14(D835Y) cells; MOLM14(D835Y) cells, combination with SNDX-5613
  Excess HSA Score: −279.3
MOLM14(D835Y) cells; MOLM14(D835Y) cells, combination with TNO-155
  Excess HSA Score: −1249
MOLM14(D835Y) cells; MOLM14(D835Y) cells, combination with Trametinib
  Excess HSA Score: −336.8
MOLM14(D835Y) cells; MOLM14(D835Y) cells, combination with Ulixertinib
  Excess HSA Score: −260.4
MOLM14(D835Y) cells; [16]
  Excess HSA Score: −1890
  Comments: Synergistic
MOLM14(D835Y) cells; MOLM14(D835Y), title compound starting conc. 200 nM + (+)-BAY-1251152 starting conc. 1000 nM
  Excess HSA Score: −369.2
MOLM14(D835Y) cells; MOLM14(D835Y), title compound starting conc. 200 nM + Azacitidine (5-Azacytidine) starting conc. 20000 nM
  Excess HSA Score: −594
MOLM14(D835Y) cells; MOLM14(D835Y), title compound starting conc. 200 nM + Palbociclib starting conc. 10000 nM
  Excess HSA Score: −490.9
MOLM14(D835Y) cells; MOLM14(D835Y), title compound starting conc. 200 nM + Prednisolone starting conc. 10000 nM
  Excess HSA Score: 12.1697
MOLM14(D835Y) cells; MOLM14(D835Y), title compound starting conc. 200 nM + TNO-155 starting conc. 10000 nM
  Excess HSA Score: −944.7
MOLM14(D835Y) cells; MOLM14(D835Y), title compound starting conc. 200 nM + Venetoclax (ABT-199) starting conc. 2000 nM
  Excess HSA Score: −764.8
MOLM14(D835Y) cells; MOLM14(D835Y), title compound starting conc. 200 nM + Venetoclax (ABT-199) starting conc. 20000 nM
  Excess HSA Score: −71.65
MOLM14(D835Y) cells; MOLM14(D835Y), title compound starting conc. 20000 nM + (+)-BAY-1251152 starting conc. 1000 nM
  Excess HSA Score: −47.77
MOLM14(D835Y) cells; MOLM14(D835Y), title compound starting conc. 20000 nM + Azacitidine (5-Azacytidine) starting conc. 20000 nM
  Excess HSA Score: −49.15
MOLM14(D835Y) cells; MOLM14(D835Y), title compound starting conc. 20000 nM + Palbociclib starting conc. 10000 nM
  Excess HSA Score: 182.1
MOLM14(D835Y) cells; MOLM14(D835Y), title compound starting conc. 20000 nM + Prednisolone starting conc. 10000 nM
  Excess HSA Score: 153.7
MOLM14(D835Y) cells; MOLM14(D835Y), title compound starting conc. 20000 nM + TNO-155 starting conc. 10000 nM
  Excess HSA Score: −94.76
MOLM14(D835Y) cells; MOLM14(D835Y), title compound starting conc. 20000 nM + Venetoclax (ABT-199) starting conc. 2000 nM
  Excess HSA Score: −501.6
MOLM14(D835Y) cells; MOLM14(D835Y), title compound starting conc. 20000 nM + Venetoclax (ABT-199) starting conc. 20000 nM
  Excess HSA Score: −122.6
FLT3 D835Y
  Kd: 0.74 nM
